Assay results taken from US20200222347A1, “ANTIMICROBIALS AND METHODS OF USE THEREOF” (priority 2013, published 2020).
“Also recorded” adds a separate entry of the source.

How the values were obtained:
C. albicans = assay: Kirby-Bauer disc diffusion antimicrobial susceptibility; type: cell-based, Candida albicans; conditions: 100 mM, carrier water
S. aureus 6538 = assay: as above; type: cell-based; conditions: 100 mM, carrier water; 18-24 hours for aerobes
S. aureus 33591 (MRSA) = assay: as above; type: cell-based, Staphylococcus aureus; conditions: 100 mM, carrier water; 18-24 hours for aerobes
K. pneumoniae = assay: as above; type: cell-based; conditions: 100 mM, carrier water; 18-24 hours for aerobes
[1] = tested on: Staphylococcus epidermidis ATCC 51625 (MRSE); assay: In vitro antimicrobial test (FIG. 32); type: cell-based
[2] = tested on: Propionibacterium acnes (1100; ATCC 6919); assay: BALB/c mice intradermal infection, topical treatment, Example 9; type: in vivo; conditions: for effect on P. acnes CFU burden in mouse skin: 96 hours
Description: BALB/c mice were infected with Propionibacterium acnes via intradermal injection and treated topically with varying concentrations of a novel test compound, PCA, at 2, 24, 48 and 72 hours following challenge. Efficacy was evaluated by CFU analysis from skin samples harvested at 96 hours post challenge.
Female BALB/c mice, ordered from Harlan and weighing 17-19 g, were acclimated to housing conditions and handled in accordance with AUP number TP-18-13. The animals were acclimated for 4 days prior to bacterial challenge. Only animals deemed healthy and fully immunocompetent were included in this study. Cages were prepared with 2 mice per cage.
On Day −1, each mouse was anesthetized in an Isoflurane induction chamber and the lesion site was cleared of hair. An area of approximately 2.0 cm×2.0 cm of skin on the dorsal area of each mouse was cleared through use of the depilatory agent Nair®.
Cultures were grown for 96 hrs at 37° C. in an anaerobic atmosphere on TS agar plates supplemented with 5% sheep blood cells. The culture was aseptically swabbed and transferred to tubes of TS broth and allowed to grow for 72 hours. The cultures were diluted to provide challenge inoculum of approximately 6.0-7.0 log 10 CFU per 50 μL in PBS. On Day 0 each mouse was anesthetized using Isoflurane. Each animal on the study was administered 50 μL of the bacterial suspension via intradermal injection in the dorsal area that was previously denuded of hair. The final CFU count from the challenge suspension determined that 6.0 log 10 CFU per mouse were delivered.
The test treatment, PCA, was provided by the study Sponsor and formulated using sterile water. Treatments were administered topically in a dose volume of 0.1 mL. Treatments were given at 2, 24, 48 and 72 hours post challenge at 60 mg/kg (78 mM; Group 3), 30 mg/kg (39 mM; Group 4) or 15 mg/kg (19.5 mM; Group 5).
At 96 hours following challenge, mice were humanely euthanized and skin was aseptically removed from the infection site. Skin samples were placed in homogenation vials with 2.0 mL PBS, weighed and homogenized using a mini-bead beater. Homogenate was serially diluted and plated anaerobically on TSA agar plates for enumeration of colony forming units per gram of skin tissue.

[3] = tested on: normal human skin bacterial resident flora; assay: Human skin disinfection study, Loma Linda, Phase IV; type: in vivo; conditions: for no growth cultures results after treatment, anaerobic / no growth cultures results after treatment, Aerobic: Phase IV, two applications
Description: Method: The variations in materials and methods in this phase were based upon results of the previous phases. They included changes in the solution, the method of dissolving the PCA, the timing of skin application, plus using two applications to simulate the present day recommendations of surgical skin preparation.
The method placed the 20 grams of ground PCA in sterile container with volume markers. Then added 85 ml of 91% isopropyl alcohol; warm and shake. […] A repeat of warming and shaking was instituted. The container was filled to 100 ml, warm and repeated the shaking. It took perhaps 15 to 20 minutes for the ground crystals to dissolve.
An area was marked at 4 corners on the anterior axilla area of both shoulders. There was a topical reagent application. After 5 minutes a second application was made. The control group was again Chloroprep®. The experimental side was applied with manual motion and pressure on a sterile sponge soaked with the PCA solution. The subjects put hands on head for 10 minutes and then 10 minutes of moving arms around. Culture #1 was harvested with scraping at 20 minutes post 2nd application. Subjects rested their arms at side for 40 minutes which is 60 minutes after the first application and 40 minutes after culture #1. A second culture is taken with scraping. The post application cultures were taken of each shoulder skin area with scraping with back side of a sterile surgical knife blade to maximize the yield.

Propionibacterium acnes = assay: Human skin disinfection study, species analysis of cultures; type: in vivo; conditions: Phase IV
Description: Phase 1: The active test reagent was topically applied 1.54% PCA in sterile water to the anterior shoulder region. This 1.54% solution of PCA in water was used effectively in our prior animal wound studies. The controls were Chloroprep (2% Chlorhexidine in 70% isopropyl alcohol) and Betadine (9.0% to 12.0% available iodine in water). Cultures were taken before application and 20 minutes after application. The initial harvest was by a surface swab. Application was by soaked sponge, without force or scrubbing. The second harvest was performed with the back edge of a sterile knife blade scraping with pressure in attempt to maximize the harvest from the deeper sebaceous glands and hair follicles. The specimens were placed in culture media. Bacteriology was performed at WuXiAppTec in Marrietta, Ga.
Phase 2 included eleven medical students and was same method as Phase 1. However the PCA vehicle was changed to 70% isopropyl alcohol. This allowed a higher concentration of PCA than possible in sterile water, 10%. Phase 2a: The 70% isopropyl alcohol vehicle was tested for its bactericidal properties. […] In this way it was learned what specific bacterial strains PCA could eliminate or reduce.
Cultures were stored in ice and shipped in FedEx ice box to WuXiapptec in Marietta, Ga. for aerobic and anaerobic cultures and held for 21 days. […]

[4] = tested on: normal human skin bacterial resident flora; assay: Summary of the 4 Phase Testing at Loma Linda; type: in vivo
Description: A randomized double blinded study was performed at Loma Linda Medical School. It involved 4 phases over two years' time.

[5] = tested on: skin stripped wounds infected with Pseudomonas aeruginosa (ATCC 27853); assay: Histology of stripped, infected and treated skin wound, Example 6; conditions: 48 hours

O=C(O)c1ccc(O)c(O)c1 [PCA, Protocatechuic acid]
effectiveness against C. albicans (C. albicans): effective; also recorded: susceptible | effectiveness against S. aureus 6538 (S. aureus 6538): effective | effectiveness against S. aureus 33591 (MRSA) (S. aureus 33591 (MRSA)): effective | effectiveness against K. pneumoniae (K. pneumoniae): effective | effectiveness against MRSE ATCC 51625 [1]: effective | effect on P. acnes CFU burden in mouse skin ([2]; 15 mg/kg (19.5 mM) topical): no such effect; also recorded: statistically non-different | effect on P. acnes CFU burden in mouse skin ([2]; 30 mg/kg (39 mM) topical): no such effect; also recorded: statistically non-different | reduction of CFU burden in skin vs untreated ([2]; 60 mg/kg (78 mM) topical at 2, 24, 48 and 72 hours, harvest 96 hours): approximately 1 log 10 | effect on P. acnes CFU burden in mouse skin ([2]; 60 mg/kg (78 mM) topical, P=0.0285 vs untreated): bacteriostatic effect; also recorded: significant reduction | removal of potential pathogens from skin ([3]; Phase IV solution: 20 grams of PCA, 91% isopropyl alcohol, 5 ml of essence of peppermint oil): effective in removing potential pathogens | no growth cultures results after treatment, anaerobic ([3]; 20 minutes): 4/12 | no growth cultures results after treatment, Aerobic ([3]; 20 minutes, PCA in 91% isopropyl alcohol and essential oil of peppermint): 12/12 | no growth cultures results after treatment, Aerobic ([3]; 60 minutes): 7/12 | no growth cultures results after treatment, anaerobic ([3]; 60 minutes): 6/12 | P. acnes growth after treatment (Propionibacterium acnes; culture #14, 20 minutes): no growth | P. acnes growth after treatment (Propionibacterium acnes; culture #19, 60 minutes): no growth | optimal dose to act as a human skin disinfectant ([4]; in vivo): greater than 10% | removal of pathogens from human skin ([4]; solutions at 10% or higher): removed all pathogens | collagen between the epidermis and dermis ([5]; 25 mM): collagen proliferation between the epidermis and dermis; also recorded: collagen layer formation | dermal layer ([5]; 25 mM): thickened | hair follicles ([5]; 25 mM): prominent with multiple cellular lining | inflammation ([5]; 25 mM): abundant inflammation | surface cellularity ([5]; 25 mM): abundant and multiple cell layers | vascularity ([5]; 25 mM): moderate vascularity | dermal layer ([5]; 50 mM): thicker | hair follicles ([5]; 50 mM): double layer of cells | inflammation ([5]; 50 mM): increased in the dermis and below the muscle layer | surface cellularity ([5]; 50 mM): covered with multiple layers of cells | vascularity ([5]; 50 mM): increased vascularity | tissue repair / healing response by histology ([5]; PCA 25 and 50 mM, C3G 100 and 200 mM): stimulated tissue repair
